Patent US9669005B2, “Use of naringenin in preparing drugs for preventing and/or treatment abdominal aortic aneurysm” (priority 2013, dated 2017)

Tests used:
[1] = test system: abdominal aortic aneurysms in C57BL/6J mice with CaPO4 daubed infrarenal arteries; test: Abdominal aortic aneurysm model induced by CaPO4 daubed infrarenal aortas, naringenin or doxycycline gavage; type: in vivo; conditions: CaPO4 daubed C57BL/6 mice; daily gavage 7 days; naringenin 50 mg/kg, doxycycline 100 mg/kg; average ± SD; CaPO4 + water 1.40±0.19, NaCl 0.77±0.06
Experimental: 12-week old of male C57BL/6 mice were anesthetized via intraperitoneal injection of 0.1% pentobarbital sodium (injection according to body weight, […]). Infrarenal abdominal aortas were separated, and the separated infrarenal abdominal aortas were packaged by gauze (1 cm in width×3 cm in length) soaked in 0.5 M CaCl2 solution. After 10 minutes, the gauze was removed, gauze soaked in PBS was instead used to package the blood vessel for 5 min. CaCl2+and PO4^−3 in PBS can form CaPO4 crystal, that is, corresponding to daubing CaPO4 to the blood vessel. After packaging the blood vessel with gauze soaked in NaCl for 10 minutes, gauze soaked in PBS is instead used for 5 min, serving as NaCl daubed control group.
(§1) Gavage was started at the first day after surgery, and water, naringenin (50 mg/kg) (Sigma-Aldrich, St. Louis, Mo.) or doxycycline (100 mg/kg) (Sigma-Aldrich, St. Louis, Mo.) gavage were given on mice daily. Materials were removed from the mice 7 days after gavage. Mice were weighed, and blood was drawn from inner canthus by capillary, after centrifuged for 10 minutes at 6000 rotations, the supernatant was removed and blood fat was measured (kit is purchased from BIOSINO company). Then perfusion and washing were performed on mice using PBS. Blood vessels were separated, and four blood vessels were randomly chosen for each group for photographing. The results were shown in FIG. 1, wherein, NaCl was the group of daubing NaCl (n=11), CaPO4 was the group of daubing CaPO4 plus water feed (n=12), CaPO4+NGN was the group of daubing CaPO4 μlus naringenin gavage (n=11), and CaPO4+Dox was the group of daubing CaPO4 μlus doxycycline gavage (n=11).
The blood vessels were sliced, and the change of the diameters in infrarenal abdominal aortas of mice were identified by H.E. staining. […] The data in FIG. 2A were an average value±standard deviation.
The fracture degree of elastic lamina is also an index showing the severity of abdominal aortic aneurysms. The degradation of elastic lamina is divided into four grades. The first grade means that the degradation of elastic lamina is less than 25%, with the second grade of 25%-50%, the third grade of 50%-75%, and the fourth grade means the fracture is more than 75%. We used Gomori staining to identify the fracture situation of elastic lamina of infrarenal abdominal aortas of mice. […] The data in FIG. 2B were an average value±standard deviation.

[2] = Body weight and blood fat of CaPO4 treated C57BL/6J mice; type: in vivo; conditions: CaPO4 treated C57BL/6J mice; gavage 7 days; naringenin 50 mg/kg, doxycycline 100 mg/kg
Experimental: as §1

Which “diameters of infrarenal abdominal aortas (H.E. staining)” value [1] does the source give for `C[C@H]1c2cccc(O)c2C(=O)C2=C(O)[C@]3(O)C(=O)C(C(N)=O)=C(O)[C@@H](N(C)C)[C@@H]3[C@@H](O)[C@@H]21` [doxycycline, reference compound] here?
Its value is 0.99±0.18 mm.

What about the Body weight [2] of the same compound?
The Body weight was 21.0 ± 1.89 g.

What about the Cholesterol [2] of the same compound?
The Cholesterol was 3.49 ± 0.64 mmol.

What about the Triglyceride [2] of the same compound?
Its Triglyceride is 1.07 ± 0.32 mmol.
